Measured values reported in PMC7333345, “nanoDSF: In vitro Label-Free Method to Monitor Picornavirus Uncoating and Test Compounds Affecting Particle Stability” (Frontiers in Microbiology, 2020).

Target: T1, RV-A2 (native virion capsid; VP1 hydrophobic pocket) (rhinovirus A2, UniProt P04936)
T1 construct: native purified virion (propagated virus, monolithic chromatography); 60 copies each of VP1-VP4 cut from the genome polyprotein; VP4 68 aa; with Capsid protein VP2; Capsid protein VP3; Capsid protein VP4
Assay: nanoDSF (intrinsic tryptophan fluorescence, Em350/Em330 ratio)
Format: binding
Settings: 1 mM pleconaril, 2% DMSO, PBS, 1 °C/min, RV-A2 0.5 mg/ml (1 mg/ml in Figure 3 legend), whole virion, against DMSO control

T1 sequence (P04936 2-850): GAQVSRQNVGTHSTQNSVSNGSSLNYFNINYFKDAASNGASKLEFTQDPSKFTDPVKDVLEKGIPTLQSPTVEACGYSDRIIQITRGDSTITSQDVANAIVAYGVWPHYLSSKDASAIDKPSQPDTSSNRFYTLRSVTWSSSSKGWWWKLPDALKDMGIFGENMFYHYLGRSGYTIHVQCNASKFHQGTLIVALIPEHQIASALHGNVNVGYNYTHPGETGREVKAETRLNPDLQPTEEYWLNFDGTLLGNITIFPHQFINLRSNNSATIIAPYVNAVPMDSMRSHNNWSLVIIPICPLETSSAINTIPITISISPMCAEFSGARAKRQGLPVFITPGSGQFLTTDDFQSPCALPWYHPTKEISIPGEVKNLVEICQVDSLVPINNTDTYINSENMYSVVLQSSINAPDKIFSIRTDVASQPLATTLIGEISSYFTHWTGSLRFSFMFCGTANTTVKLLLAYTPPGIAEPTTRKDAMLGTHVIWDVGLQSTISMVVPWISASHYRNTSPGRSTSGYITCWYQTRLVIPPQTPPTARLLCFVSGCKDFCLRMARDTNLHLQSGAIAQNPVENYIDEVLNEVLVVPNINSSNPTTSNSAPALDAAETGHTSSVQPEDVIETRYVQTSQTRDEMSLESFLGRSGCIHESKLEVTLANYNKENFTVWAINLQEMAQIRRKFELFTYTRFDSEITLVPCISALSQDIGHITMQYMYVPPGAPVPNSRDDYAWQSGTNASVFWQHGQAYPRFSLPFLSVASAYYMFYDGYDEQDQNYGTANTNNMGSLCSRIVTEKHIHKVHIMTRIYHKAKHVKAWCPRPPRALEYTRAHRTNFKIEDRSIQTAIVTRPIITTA

Cc1cc(CCCOc2c(C)cc(-c3noc(C(F)(F)F)n3)cc2C)on1 [pleconaril]
shift of TA (50% N to A particle conversion): 5 °C
